Test results published in patent publication US20090286827A1, “NOVEL BI-ARYL AMINES” (priority 2006, published 2009).

Molecular target: T1, mGluR5 (Homo sapiens, UniProt P41594)
T1 construct: expressed in transfected cells
Experiment: inhibition of the glutamate induced elevation of intracellular Ca2+-concentration
Assay type: cell-based
Conditions: inhibition of glutamate induced elevation of intracellular Ca2+ at a concentration of 10 μM; for inhibition at 10 µM: read-out: mGluR5 Activity inh. at 10 μM [%]
Description: This can be determined in vitro for example at recombinant human metabotropic glutamate receptors, especially PLC-coupled subtypes thereof such as mGluR5, using different procedures like, for example, measurement of the inhibition of the agonist induced elevation of intracellular Ca^2+ concentration in accordance with L. P. Daggett et al., Neuropharm. Vol. 34, pages 871-886 (1995), P. J. Flor et al., J. Neurochem. Vol. 67, pages 58-63 (1996) or by determination to what extent the agonist induced elevation of the inositol phosphate turnover is inhibited as described by T. Knoepfel et al., Eur. J. Pharmacol. Vol. 288, pages 389-392 (1995), L. P. Daggett et al., Neuropharm. Vol. 34, pages 871-886 (1995) and references cited therein. Isolation and expression of human mGluR subtypes are described in U.S. Pat. No. 5,521,297. Selected agents of the invention show IC50 values for the inhibition of the agonist (e.g. glutamate or quisqualate) induced elevation of intracellular Ca2+ concentration or the agonist (e.g. glutamate or quisqualate) induced inositol phosphate turnover, measured in recombinant cells expressing hmGluR5a of about 1 nM to about 50 μM.
Activity of compounds of the present invention was examined by measurement of the inhibition of the glutamate induced elevation of intracellular Ca^2+-concentration following similar methods than those described in L. P. Daggett et al., Neuropharm. Vol. 34, pages 871-886 (1995), P. J. Flor et al., J. Neurochem. Vol. 67, pages 58-63 (1996).
The table below represents percentages of inhibition of the glutamate induced elevation of intracellular Ca^2+-concentration at a concentration of 10 μM.

T1 sequence (P41594 21-1180 isoform P41594-2 limits assumed): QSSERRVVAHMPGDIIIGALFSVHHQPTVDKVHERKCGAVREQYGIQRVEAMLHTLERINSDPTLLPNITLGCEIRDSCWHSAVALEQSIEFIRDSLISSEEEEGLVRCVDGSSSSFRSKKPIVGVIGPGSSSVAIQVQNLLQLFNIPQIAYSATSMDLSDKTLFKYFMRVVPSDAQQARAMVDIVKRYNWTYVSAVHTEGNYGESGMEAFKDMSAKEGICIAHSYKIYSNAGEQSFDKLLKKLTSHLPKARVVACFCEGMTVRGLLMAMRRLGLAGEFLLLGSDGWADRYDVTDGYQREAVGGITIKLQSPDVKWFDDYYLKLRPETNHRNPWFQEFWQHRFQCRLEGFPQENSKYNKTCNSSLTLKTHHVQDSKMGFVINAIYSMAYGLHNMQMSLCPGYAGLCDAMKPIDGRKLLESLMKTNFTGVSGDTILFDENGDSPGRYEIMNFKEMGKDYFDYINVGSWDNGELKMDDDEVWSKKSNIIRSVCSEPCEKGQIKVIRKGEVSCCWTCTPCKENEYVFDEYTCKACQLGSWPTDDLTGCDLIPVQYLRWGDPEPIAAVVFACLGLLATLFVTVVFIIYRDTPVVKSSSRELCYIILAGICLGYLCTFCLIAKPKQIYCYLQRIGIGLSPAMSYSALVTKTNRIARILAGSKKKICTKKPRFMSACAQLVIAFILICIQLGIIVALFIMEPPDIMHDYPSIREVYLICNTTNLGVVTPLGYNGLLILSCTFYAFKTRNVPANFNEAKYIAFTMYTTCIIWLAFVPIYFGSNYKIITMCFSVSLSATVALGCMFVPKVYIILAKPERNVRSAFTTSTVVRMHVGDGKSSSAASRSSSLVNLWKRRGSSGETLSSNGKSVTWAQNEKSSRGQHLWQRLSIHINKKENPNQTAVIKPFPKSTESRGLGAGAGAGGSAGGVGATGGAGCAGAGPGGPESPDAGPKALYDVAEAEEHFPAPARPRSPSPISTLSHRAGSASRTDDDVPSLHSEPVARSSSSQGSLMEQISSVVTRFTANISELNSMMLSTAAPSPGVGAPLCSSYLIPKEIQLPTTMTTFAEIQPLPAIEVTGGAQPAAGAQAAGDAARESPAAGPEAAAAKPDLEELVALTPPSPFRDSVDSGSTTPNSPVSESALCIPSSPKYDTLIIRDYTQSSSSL

inhibition at 10 µM | mGluR5 Activity inh. at 10 μM [%] | SMILES
94% |  | CCn1ccnc1-c1ccc(Nc2ccc(Cl)cc2)nc1 [Compound 1, (4-Chloro-phenyl)-[5-(1-ethyl-1H-imidazol-2-yl)-pyridin-2-yl]-amine]
81% |  | Cn1ccnc1-c1ccc(Nc2ccc(Cl)cc2)nc1 [Compound 2, (4-Chloro-phenyl)-[5-(1-methyl-1H-imidazol-2-yl)-pyridin-2-yl]-amine]
 | 27% | Clc1ccc(Nc2ccc(-c3nccn3C3CCCCC3)cn2)cc1 [Compound 7, (4-Chloro-phenyl)-[5-(1-yclohexyl-1H-imidazol-2-yl)-pyridin-2-yl]-amine]
63% |  | Clc1ccc(Nc2ccc(-c3nccn3-c3ccccc3)cn2)cc1 [Compound 9, (4-Chloro-phenyl)-[5-(1-phenyl-1H-imidazol-2-yl)-pyridin-2-yl]-amine]
73% |  | CC(C)n1cncc1-c1ccc(Nc2ccc(Cl)cc2)nc1 [Compound 10, (4-Chloro-phenyl)-[5-(3-isopropyl-3H-imidazol-4-yl)-pyridin-2-yl]-amine]
56% |  | CC(C)n1cnc(-c2ccc(Nc3ccc(Cl)cc3)nc2)c1 [Compound 11, (4-Chloro-phenyl)-[5-(1-isopropyl-1H-imidazol-4-yl)-pyridin-2-yl]-amine]
40% |  | CC(C)n1cnnc1-c1ccc(Nc2ccc(Cl)cc2)nc1 [Compound 12, (4-Chloro-phenyl)-[5-(4-isopropyl-4H-[1,2,4]triazol-3-yl)-pyridin-2-yl]-amine]
95% |  | Clc1ccc(Nc2ccc(-c3nnc4n3CCCC4)cn2)cc1 [Compound 13, (4-Chloro-phenyl)-[5-(5,6,7,8-tetrahydro-[1,2,4]triazolo[4,3-a]pyridin-3-yl)-pyridin-2-yl]-amine]
32% |  | Clc1ccc(Nc2ncc(-c3ncc4ccccn34)cc2Cl)cc1 [Compound 16, (3-Chloro-5-imidazo[1,5-a]pyridin-3-yl-pyridin-2-yl)-(4-chloro-phenyl)-amine]
49% |  | CCCn1nnnc1-c1cnc(Nc2ccc(Cl)cc2)c(Cl)c1 [Compound 22, (4-Chloro-phenyl)-[3-chloro-5-(1-propyl-1H-tetrazol-5-yl)-pyridin-2-yl]-amine]
53% |  | CC(C)Cn1nnnc1-c1cnc(Nc2ccc(Cl)cc2)c(Cl)c1 [Compound 23, [3-Chloro-5-(1-isobutyl-1H-tetrazol-5-yl)-pyridin-2-yl]-(4-chloro-phenyl)-amine]
93% |  | Clc1ccc(Nc2ncc(-c3nnc4n3CCCCC4)cc2Cl)cc1 [Compound 25, (4-Chloro-phenyl)-[3-chloro-5-(6,7,8,9-tetrahydro-5H-[1,2,4]triazolo[4,3-a]azepin-3-yl)-pyridin-2-yl]-amine]
39% |  | Cc1cc(-c2cnc(Nc3ccc(Cl)cc3)c(Cl)c2)n(C)n1 [Compound 29, [3-Chloro-5-(2,5-dimethyl-2H-pyrazol-3-yl)-pyridin-2-yl]-(4-chloro-phenyl)-amine]

The remaining lines, values behind:

SMILES | inhibition at 10 µM | mGluR5 Activity inh. at 10 μM [%]
CCCn1ccnc1-c1ccc(Nc2ccc(Cl)cc2)nc1 [Compound 3, (4-Chloro-phenyl)-[5-(1-propyl-1H-imidazol-2-yl)-pyridin-2-yl]-amine] | 96% | 
CC(C)n1ccnc1-c1ccc(Nc2ccc(Cl)cc2)nc1 [Compound 4, (4-Chloro-phenyl)-[5-(1-isopropyl-1H-imidazol-2-yl)-pyridin-2-yl]-amine] | 93% | 
CC(C)Cn1ccnc1-c1ccc(Nc2ccc(Cl)cc2)nc1 [Compound 5, (4-Chloro-phenyl)-[5-(1-isobutyl-1H-imidazol-2-yl)-pyridin-2-yl]-amine] | 95% | 
Clc1ccc(Nc2ccc(-c3nccn3CC3CC3)cn2)cc1 [Compound 6, (4-Chloro-phenyl)-[5-(1-cyclopropylmethyl-1H-imidazol-2-yl)-pyridin-2-yl]-amine] | 96% | 
Clc1ccc(Nc2ccc(-c3nccn3Cc3ccccc3)cn2)cc1 [Compound 8, [5-(1-Benzyl-1H-imidazol-2-yl)-pyridin-2-yl]-(4-chloro-phenyl)-amine] | 36% | 
Clc1ccc(Nc2ccc(-c3nnc4ccccn34)cn2)cc1 [Compound 14, (4-Chloro-phenyl)-(5-[1,2,4]triazolo[4,3-a]pyridin-3-yl-pyridin-2-yl)-amine] | 28% | 
CCn1ccnc1-c1cnc(Nc2ccc(Cl)cc2)c(Cl)c1 [Compound 15, [3-Chloro-5-(1-ethyl-1H-imidazol-2-yl)-pyridin-2-yl]-(4-chloro-phenyl)-amine] | 100% | 
Clc1ccc(Nc2ncc(-c3ncc4n3CCCC4)cc2Cl)cc1 [Compound 17, (4-Chloro-phenyl)-[3-chloro-5-(5,6,7,8-tetrahydro-imidazo[1,5-a]pyridin-3-yl)-pyridin-2-yl]-amine] | 95% | 
CCn1ccnc1-c1cnc(Nc2ccc(C)nc2)c(Cl)c1 [Compound 18, [3-Chloro-5-(1-ethyl-1H-imidazol-2-yl)-pyridin-2-yl]-(6-methyl-pyridin-3-yl)-amine] | 95% | 
CCCn1ccnc1-c1cnc(Nc2ccc(Cl)cc2)c(Cl)c1 [Compound 19, (4-Chloro-phenyl)-[3-chloro-5-(1-propyl-1H-imidazol-2-yl)-pyridin-2-yl]-amine] | 97% | 
CCn1c(-c2cnc(Nc3ccc(Cl)cc3)c(Cl)c2)nc(C)c1C [Compound 20, [3-Chloro-5-(1-ethyl-4,5-dimethyl-1H-imidazol-2-yl)-pyridin-2-yl]-(4-chloro-phenyl)-amine] | 92% | 
Clc1ccc(Nc2ncc(-c3nnn[nH]3)cc2Cl)cc1 [Compound 21, (4-Chloro-phenyl)-[3-chloro-5-(1H-tetrazol-5-yl)-pyridin-2-yl]-amine] | 56% | 
Clc1ccc(Nc2ncc(-c3nnc4n3CCCC4)cc2Cl)cc1 [Compound 24, (4-Chloro-phenyl)-[3-chloro-5-(5,6,7,8-tetrahydro-[1,2,4]triazolo[4,3-a]pyridin-3-yl)-pyridin-2-yl]-amine] | 89% | 
Clc1ccc(Nc2ncc(-c3nnc4n3CCCCCC4)cc2Cl)cc1 [Compound 26, [3-Chloro-5-(5,6,7,8,9,10-hexahydro-[1,2,4]triazolo[4,3-a]azocin-3-yl)-pyridin-2-yl]-(4-chloro-phenyl)-amine] | 98% | 
Clc1ccc(Nc2ncc(-c3nnc4n3CCCCCCC4)cc2Cl)cc1 [Compound 27, [3-Chloro-5-(6,7,8,9,10,11-hexahydro-5H-[1,2,4]triazolo[4,3-a]azonin-3-yl)-pyridin-2-yl]-(4-chloro-phenyl)-amine] | 100% | 
CCn1cccc1-c1cnc(Nc2ccc(Cl)cc2)c(Cl)c1 [Compound 28, [3-Chloro-5-(1-ethyl-1H-pyrrol-2-yl)-pyridin-2-yl]-(4-chloro-phenyl)-amine] | 31% | 
Cc1cn(C)c(-c2cnc(Nc3ccc(Cl)cc3)c(Cl)c2)n1 [Compound 30, [3-Chloro-5-(1,4-dimethyl-1H-imidazol-2-yl)-pyridin-2-yl]-(4-chloro-phenyl)-amine] | 98% | 
Cc1cnc(-c2cnc(Nc3ccc(Cl)cc3)c(Cl)c2)n1C [Compound 31, [3-Chloro-5-(1,5-dimethyl-1H-imidazol-2-yl)-pyridin-2-yl]-(4-chloro-phenyl)-amine] | 48% | 
